Data as given in paper PMC8063026 (Frontiers in Pharmacology, 2021).
Where two headings read alike, the source gives them in different places.

Key:
SERT [1] = molecular target: T1, SERT (Homo sapiens, UniProt P31645); conditions: read-out: IC50 SERT; QSAR data matrix; unit inferred; compounds not tested in this paper, source not given, presumably ref Mayer et al., 2019; cited from earlier work
T1 construct: expressed in transfected cells

DAT [2] = molecular target: T2, DAT (Homo sapiens, UniProt Q01959); assay: cell-based
T2 construct: expressed in transfected cells
T2 sequence (Q01959 whole entry): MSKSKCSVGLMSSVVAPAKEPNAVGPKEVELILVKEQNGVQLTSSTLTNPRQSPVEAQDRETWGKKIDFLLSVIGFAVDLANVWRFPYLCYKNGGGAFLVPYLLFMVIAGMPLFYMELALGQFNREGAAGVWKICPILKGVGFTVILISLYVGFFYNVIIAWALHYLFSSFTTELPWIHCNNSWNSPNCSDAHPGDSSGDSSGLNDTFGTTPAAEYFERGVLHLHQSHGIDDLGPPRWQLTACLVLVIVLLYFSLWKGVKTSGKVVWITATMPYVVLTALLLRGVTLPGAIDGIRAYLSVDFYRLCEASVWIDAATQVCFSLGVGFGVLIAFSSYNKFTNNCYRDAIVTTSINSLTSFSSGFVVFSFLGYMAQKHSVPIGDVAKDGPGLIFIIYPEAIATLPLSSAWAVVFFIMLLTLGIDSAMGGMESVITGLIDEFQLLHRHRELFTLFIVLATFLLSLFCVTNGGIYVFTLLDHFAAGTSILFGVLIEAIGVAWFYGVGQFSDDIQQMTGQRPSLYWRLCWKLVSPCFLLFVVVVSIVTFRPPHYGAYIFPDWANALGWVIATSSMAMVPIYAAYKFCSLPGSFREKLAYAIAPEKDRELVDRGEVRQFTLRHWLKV

SERT [3] = molecular target: T1, SERT; assay: Uptake-inhibition of [3H]5-HT in HEK293 cells stably expressing human SERT; type: cell-based
human NET = molecular target: T3, human NET (Homo sapiens, UniProt P23975); assay: cell-based
T3 construct: expressed in transfected cells
T3 sequence (P23975 whole entry): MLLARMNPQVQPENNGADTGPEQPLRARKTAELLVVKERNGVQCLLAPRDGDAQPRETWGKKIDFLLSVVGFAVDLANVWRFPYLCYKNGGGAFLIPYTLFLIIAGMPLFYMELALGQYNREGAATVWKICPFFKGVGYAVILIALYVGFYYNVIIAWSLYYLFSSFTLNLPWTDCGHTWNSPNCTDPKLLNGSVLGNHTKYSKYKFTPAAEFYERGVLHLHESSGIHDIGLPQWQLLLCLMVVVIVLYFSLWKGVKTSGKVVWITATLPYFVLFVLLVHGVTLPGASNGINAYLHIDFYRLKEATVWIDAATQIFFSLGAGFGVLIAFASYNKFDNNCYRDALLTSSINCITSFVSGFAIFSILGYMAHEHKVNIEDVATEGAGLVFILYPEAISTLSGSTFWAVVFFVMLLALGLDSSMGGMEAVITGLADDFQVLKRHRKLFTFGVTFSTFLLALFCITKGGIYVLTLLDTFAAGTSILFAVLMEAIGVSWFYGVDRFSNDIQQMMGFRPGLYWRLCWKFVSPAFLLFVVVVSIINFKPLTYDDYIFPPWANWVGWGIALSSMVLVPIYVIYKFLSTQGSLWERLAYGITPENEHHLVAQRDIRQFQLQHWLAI

[4] = LC-MS/MS detection of mephedrone metabolites in a human urine sample; type: in vivo; parameters: key to Detected in urine samples: detected (+); not detected (−); conditions: for Detected in urine samples: human urine, mephedrone user, only syn- and anti-configurations could be separated; for detection in human urine sample: achiral LC-MS/MS, after enzymatic workup
Source text: The biological specimen, human urine, was provided by the Department of Chemical Analytics, Seibersdorf Laboratories GmbH. The sample was taken from a subject postmortem in a fatal case of drug overdose. […] Given this fact, we assumed that also the metabolites would be detectable in sufficient quantity. To evaluate the presence of any metabolites whatsoever in the urine sample we designed an achiral separation protocol for liquid chromatography and we coupled it with triple quadrupole mass spectrometer. The advantage of LC-MS/MS system is that even if two substances have the same retention time, they can still be differentiated by their fragmentation pattern. More in details, the samples for urine analysis were analyzed using a CTC HTS PAL autosampler (CTC Analytics) and a Thermo Surveyor LC system (Thermo) interfaced to a TSQ Quantum Discovery Max triple quadrupole mass spectrometer (Thermo). A C18 security guard cartridge (4 × 2 mm) (Phenomenex) was used for sample clean-up and the analytical HPLC column was a Kinetex 1.7 μm C18 100Å 150 × 2.1 mm (Phenomenex) and Cortecs T3, 2.7 μm C18 120Å 100 × 2.1 mm (Waters). Column selection was performed by a Maylab Mistraswitch column selector (Maylab Analytical Instruments). The solvents were 0.2% formic acid in water (A) and acetonitrile (B). The temperature of the analytical column was maintained at 40°C. The mass spectrometer was equipped with heated electrospray ionization (ESI) source and was operated in positive ionization mode with a spray voltage set at 4500V. The capillary temperature was adjusted to 320°C. The sheath and auxiliary gas (nitrogen) flow rate was 25 and 10 arbitrary units, respectively. The system was operated in selected […] (srm) mode with argon as the collision gas at a pressure of 1.5 mTorr. For the achiral separation, stem solutions were prepared by weighing the reference substances in volumetric flasks and filling them up with MeOH (99.9%; HPLC grade), creating average concentration of 1 mg/ml. Then dilution solutions were prepared as follows: 10 μL of stem solution was filled up to 5 ml MeOH, creating dilution […]. Samples were prepared from dilution solutions by taking out 25 μL and mixing it together with 25 μL of ISP, 50 μL ISS and filled up to 1 ml with Milli-Q water. The final sample solvent was water/MeOH 9/1. For the enzymatic workup, phosphate buffer (1 ml, 0.8M, pH = 7), β-glucuronidase/arylsulfatase (25 μL) and β-glucuronidase (25 μL) were added to the solutions. The solutions were heated at 50°C during 1 h upon which EtOAc (7 ml) was added. The solution was put into shaker for 10min, following centrifugation for 5 min. The organic phase was separated and evaporated into dryness in stream of pressurized nitrogen. The residue was taken up in 150 μL MQ-water/MeOH 9/1 + 0.4% formic acid, heated at 50°C for 5 min and subjected to LC-MS analysis.
If on one hand the synthesis of putative metabolites allows the establishment of structure activity relationships, on the other hand, it provides pure material to evaluate their presence in human urine samples and determine their pharmacological relevance. To determine the presence of any metabolites in the urine sample, we have designed an achiral separation protocol and coupled the liquid chromatography with triple quadrupole mass spectrometer (LCMS/MS). With the LCMS/MS system two substances with the same retention time, can still be differentiated by their fragmentation pattern. Since metabolites carrying a primary alcohol functionality can form glucuronide and sulfate conjugates, we performed an enzymatic workup of the urine sample in order to cleave them. Apart from the parental drug, we detected 4-OH-MMC and 4-MC (nor-meph) which we have both already identified in our previous publication ([Mayer et al., 2019]), and the two previously uncharacterized metabolites 4-COOH-MC and dihydro-4-MC (Figure 6). […]

SERT [5] = molecular target: T1, SERT; assay: Transporter electrophysiology (whole cell patch clamp), HEK293 cells stably expressing SERT; type: cell-based; conditions: compound applied at 30 µM, -60 mV
Experimental: (§1) Human embryonic kidney 293 cells (HEK293 cells) were cultivated in Dulbecco’s Modified Eagle Medium (DMEM), containing 10% heat-in- activated fetal calf serum (FCS), streptomycin (100 μg x 100 ml−1) and penicillin (100 U × 100 ml−1). Geneticin (50 μg x mL−1) was added to select HEK293 cells stably expressing the human isoforms of DAT, NET and SERT as described earlier ([Mayer et al., 2016a]). Cell lines were maintained in a sub-confluent state in humidified atmosphere (37°C, 5% CO2). For uptake inhibition experiments cells expressing the desired transporter were seeded the days before the experiment (40,000 cells per well) or two days before the experiments (20,000 cells per well) onto poly-D-lysine (PDL) coated 96-well plates 24 h prior to the experiment. In the case of transporter-electrophysiology cells were cultivated in 10 cm dishes and 24 h before the experiments they were detached, and seeded at low density onto PDL-coated 3 cm dishes.
(§2) Transporter electrophysiology was conducted by the means of whole cell patch clamp in HEK293 cells stably expressing DAT or SERT. Substrate-induced currents were recorded under voltage clamp (−60 mV). Cells were continuously superfused with a physiological external solution that contains 140 mM NaCl, 2.5 mM CaCl2, 2 mM MgCl2, 20 mM glucose and 10 mM HEPES, pH = 7.4. The pipette solution contained 133 mM potassium gluconate, 6 mM NaCl, 1 mM CaCl2, 0.7 mM MgCl2, 10 mM HEPES, 10 mM EGTA, pH = 7.2. Currents elicited by mephedrone 30 μM, were measured at room temperature (20–24°C) using an […] amplifier and pClamp 11.2 software (MDS Analytical Technologies). All the solutions perfused onto the cell were applied using a DAD-12 superfusion system and a 8-tube perfusion manifold (ALA Scientific Instruments), which allowed for rapid solution exchange. Current traces were filtered at 1 kHz and digitized at 10 kHz using a Digidata 1,550 (MDS Analytical Technologies). […] For the analysis, passive holding currents were subtracted, and the traces were filtered using a 100-Hz digital Gaussian low-pass filter.

DAT [6] = molecular target: T2, DAT; assay: Transporter electrophysiology (whole cell patch clamp), HEK293 cells stably expressing DAT; type: cell-based; conditions: compound applied at 30 µM, -60 mV
Experimental: as §1, §2

[7] = QSAR data matrix, from IC50 DAT, read-out: pIC50 DAT (converted)
[8] = mean (95% confidence interval), non-linear regression, read-out: IC50 (µM) DAT
[9] = IC50 (µM) SERT, mean (95% confidence interval), non-linear regression
[10] = IC50 SERT, QSAR data matrix, unit inferred
[11] = mean (95% confidence interval), non-linear regression, read-out: IC50 (µM) NET
[12] = mean (95% confidence interval), non-linear regression, read-out: IC50 (µM) SERT
[13] = in Figure 3, read-out: IC50(SERT)
[14] = QSAR data matrix, unit inferred, read-out: IC50 SERT

T1 sequence (P31645 whole entry): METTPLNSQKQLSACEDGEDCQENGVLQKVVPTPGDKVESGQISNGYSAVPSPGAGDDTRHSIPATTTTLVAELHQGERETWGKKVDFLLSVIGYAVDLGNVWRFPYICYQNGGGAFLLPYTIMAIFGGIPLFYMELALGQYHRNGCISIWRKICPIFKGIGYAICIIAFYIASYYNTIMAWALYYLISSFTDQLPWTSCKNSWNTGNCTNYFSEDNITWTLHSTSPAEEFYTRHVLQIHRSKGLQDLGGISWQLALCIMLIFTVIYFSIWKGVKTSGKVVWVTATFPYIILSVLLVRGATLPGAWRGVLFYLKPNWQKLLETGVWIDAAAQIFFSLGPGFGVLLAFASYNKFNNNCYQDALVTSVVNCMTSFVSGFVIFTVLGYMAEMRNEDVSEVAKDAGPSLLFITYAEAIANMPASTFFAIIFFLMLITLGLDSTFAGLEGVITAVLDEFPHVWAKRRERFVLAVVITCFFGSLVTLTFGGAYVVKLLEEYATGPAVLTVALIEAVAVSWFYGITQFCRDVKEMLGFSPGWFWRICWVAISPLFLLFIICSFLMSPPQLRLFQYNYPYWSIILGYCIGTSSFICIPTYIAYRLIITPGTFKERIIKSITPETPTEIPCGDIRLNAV

| Compound | IC50 (DAT [2]; [7]) | Detected in urine samples [4] | SERT-mediated current (SERT [5]) | Selectivity ratio DAT/SERT (DAT [2]) | IC50 (DAT [2]; [8]) | Selectivity ratio NET/DAT (human NET) | IC50 (human NET; [11]) | IC50 (SERT [3]; [12]) | DAT-mediated current (DAT [6]) | further results |
| --- | --- | --- | --- | --- | --- | --- | --- | --- | --- | --- |
| CN[C@H](C)C(=O)c1ccc(C)cc1 [2R-MMC, R-mephedrone, reference compound] | 0.776 µM |  |  |  |  |  |  |  |  | IC50 (SERT [1]): 74.8 µM; IC50 (SERT [3]; pIC50 SERT, QSAR data matrix, from IC50 SERT): 74.1 µM; IC50 (human NET): 2.75 µM |
| Cc1ccc([C@@H](O)[C@@H](C)N)cc1 [Dihydro-(R,R)-4-MC] | 8.13 µM | + | elicited only SERT-mediated currents | 9.26 | 8.05 µM | 0.44 | 18.1 µM |  |  | DAT-mediated current (DAT [6]; listed as dihydro-(R,R)-4-MC): absence of DAT-mediated current; DAT-mediated current (DAT [6]; listed as dihydro-(R,R)-4 MC): elicited only SERT-mediated currents; IC50 (SERT [3]; [9]): 74.6 µM; IC50 (SERT [3]; [10]): 74.6 µM |
| CN[C@H](C)[C@@H](O)c1ccc(CO)cc1 [Dihydro-(S,R)-4-OH-MMC] | 77.6 µM | − |  | 40.99 | 77 µM | 1.55 |  | 3160 µM |  | IC50 (human NET; QSAR data matrix, from IC50 NET, read-out: pIC50 NET (converted)): 50.1 µM |
| C[C@@H](N)[C@H](O)c1ccc(CO)cc1 [Dihydro-(R,R)-4-OH-MC] | 28.2 µM | − | did not elicit any DAT or SERT-mediated current | 48.42 | 28.3 µM | 0.61 | 46.5 µM | 1370 µM | did not elicit any DAT or SERT-mediated current | IC50 (SERT [3]; [13]): 1400 µM |
| Cc1ccc([C@H](O)[C@H](C)N)cc1 [Dihydro-(S,S)-4-MC] | 22.4 µM | + | elicited only SERT-mediated currents | 1.42 | 22.6 µM | 2.37 | 9.51 µM |  | elicited only SERT-mediated currents | IC50 (SERT [3]; [9]): 32.2 µM; IC50 (SERT [3]; [10]): 32.2 µM |
| C[C@@H](N)[C@@H](O)c1ccc(CO)cc1 [Dihydro-(S,R)-4-OH-MC] | 91.2 µM | − |  | 12.68 | 91.2 µM | 1.09 | 83.4 µM | 1160 µM |  |  |
| C[C@H](N)C(=O)c1ccc(CO)cc1 [S-4-OH-MC] |  | − | elicited both DAT- and SERT mediated currents | 2.08 | 19.2 µM | 3.22 | 5.97 µM | 40 µM | elicited both DAT- and SERT mediated currents |  |
| CNC(C)C(O)c1ccc(CO)cc1 (stereo not shown) [dihydro-4-OH-MMC] |  |  |  |  |  |  |  |  |  | detection in human urine sample [4]: not found |
| CN[C@@H](C)[C@@H](O)c1ccc(CO)cc1 [Dihydro-(S,S)-4-OH-MMC] | 162 µM | − |  | 11.49 | 161 µM | 0.55 | 291 µM | 1850 µM |  |  |
| CN[C@H](C)[C@H](O)c1ccc(CO)cc1 [Dihydro-(R,R)-4-OH-MMC] | 25.7 µM | − | did not elicit any DAT or SERT-mediated current | 67.72 | 25.6 µM | 0.69 | 37 µM | 1740 µM | did not elicit any DAT or SERT-mediated current | IC50 (SERT [3]; [13]): 1700 µM |
| Cc1ccc(C(O)C(C)N)cc1 (stereo not shown) [dihydro-4-MC, dihydro-4-nor-mephedrone] |  |  |  |  |  |  |  |  |  | detection in human urine sample [4]: detected |
| Cc1ccc([C@H](O)[C@@H](C)N)cc1 [Dihydro-(S,R)-4-MC] | 15.5 µM | + |  | 11.53 | 15.5 µM | 0.37 | 41.8 µM |  | absence of DAT-mediated current | IC50 (SERT [3]; [9]): 178 µM; IC50 (SERT [3]; [10]): 178 µM |
| CN[C@@H](C)[C@H](O)c1ccc(CO)cc1 [Dihydro-(R,S)-4-OH-MMC] | 85.1 µM | − |  | 5.87 | 84.5 µM | 1.57 | 53.9 µM | 496 µM |  | IC50 (SERT [3]; [14]): 496 µM |
| CNC(C)C(=O)c1ccc(CO)cc1.Cl (stereo not shown) [4-OH-MMC, 4-OH-mephedrone, reference compound] |  |  |  |  |  |  |  |  |  | detection in human urine sample [4]: detected |
| C[C@H](N)[C@@H](O)c1ccc(CO)cc1 [Dihydro-(S,S)-4-OH-MC] | 58.9 µM | − |  | 9.92 | 59.2 µM | 4.71 | 12.6 µM | 588 µM |  |  |
| C[C@H](N)[C@H](O)c1ccc(CO)cc1 [Dihydro-(R,S)-4-OH-MC] | 100 µM | − |  | 3.86 | 99.1 µM | 1.60 | 62 µM | 383 µM |  | IC50 (SERT [3]; [14]): 383 µM |
